Source: patent US20130203805A1, “Methods for treating anemia using inhibitors of hypoxia-inducible factor (HIF) hydroxylase” (FIBROGEN, INC., priority 2001, published 2013)

Tested on: erythropoietin gene expression
Experiment: Erythropoietin gene expression in liver and kidney by quantitative PCR (Example 2, Experiment I)
Format: in vivo, Swiss Webster male mice
Details: mice, 200 mg/kg/day oral gavage twice daily 2.5 days (5 doses), 4 h after final dose, FIG. 2A
Method: Twelve Swiss Webster male mice (30-32 g) were obtained from Simonsen, Inc. (Gilroy Calif.), and treated by oral gavage two times per day for 2.5 days (5 doses) with a 4 ml/kg volume of either 0.5% carboxymethyl cellulose (CMC; Sigma-Aldrich, St. Louis Mo.) (0 mg/kg/day) or 2.5% Compound C (25 mg/ml in 0.5% CMC) (200 mg/kg/day). Four hours after the final dose, animals were anesthetized with isoflurane and two blood samples were collected from the abdominal vein. One blood sample was collected into a MICROTAINER serum separator tube (Becton-Dickinson, Franklin Lakes N.J.), and incubated at room temperature for 30 minutes, centrifuged at 8,000 rpm at 4° C. for 10 minutes. The serum fraction was then processed and analyzed for erythropoietin (EPO) expression using a QUANTIKINE immunoassay (R&D Systems) according to the manufacturer's instructions. […] Hematocrit was measured by drawing EDTA-blood into a 75 mm×1.1-12 mm I.D. capillary tube (Chase Scientific Glass, Inc., Rockwood Tenn.) to approximately ¾ length. […] Hematocrit was read against a reader card. […]
RNA isolation was carried out using the following protocol. […] The RNA was eluted into 80 μL of water and quantitated with RIBOGREEN reagent (Molecular Probes, Eugene Oreg.). […] The absorbance at 260 and 280 nm was measured to determine RNA purity and concentration. […]
The relative level of 18S ribosomal RNA gene expression was measured as a control. […]

O=C(O)CNC(=O)c1nc(Cl)c2ccccc2c1O [Compound C, [(1-chloro-4-hydroxy-isoquinoline-3-carbonyl)-amino]-acetic acid]
increase over background in EPO transcript level, kidney (relative to untreated kidney): approximately 580 fold
increase over background in EPO transcript level, liver (relative to untreated liver): approximately 32 fold
